Pest or weed control and inhibition of growth data for 22 compounds are collected here from patent publication US20200187502A1, “MICROBIOCIDAL OXADIAZOLE DERIVATIVES” (SYNGENTA PARTICIPATIONS AG, priority 2017, published 2020).

The test system of assay [1] is Puccinia recondita f. Sp. Tritici. The assay is described as follows: Fungicidal activity, wheat leaf disc curative (brown rust). The class given is in vivo. The settings on record: foliar, 200 ppm in the applied formulation, wheat leaf segments cv. Kanzler, curative (applied 1 day after inoculation), compared to untreated control, 6 to 8 days after application, read-out: disease control. As for the experimental part:
Leaf disks or leaf segments of various plant species are cut from plants grown in a greenhouse. The cut leaf disks or segments are placed in multiwell plates (24-well format) onto water agar. The leaf disks are sprayed with a test solution before (preventative) or after (curative) inoculation. Compounds to be tested are prepared as DMSO solutions (max. 10 mg/ml) which are diluted to the appropriate concentration with 0.025% Tween20 just before spraying. The inoculated leaf disks or segments are incubated under defined conditions (temperature, relative humidity, light, etc.) according to the respective test system. A single evaluation of disease level is carried out 3 to 14 days after inoculation, depending on the pathosystem. Percent disease control relative to the untreated check leaf disks or segments is then calculated.
Wheat leaf segments cv. Kanzler are placed on agar in multiwell plates (24-well format). The leaf segments are then inoculated with a spore suspension of the fungus. Plates were stored in darkness at 19° C. and 75% relative humidity. The formulated test compound diluted in water was applied 1 day after inoculation. The leaf segments were incubated at 19° C. and 75% relative humidity under a light regime of 12 hours light/12 hours darkness in a climate cabinet and the activity of a compound was assessed as percent disease control compared to untreated when an appropriate level of disease damage appears in untreated check leaf segments (6 to 8 days after application).
The following compounds at 200 ppm in the applied formulation give at least 80% disease control in this test when compared to untreated control leaf disks under the same conditions, which show extensive disease development.

The test system of assay [2] is Glomerella lacenarium (Colletotrichum lacenarium). As to the kind of experiment: Fungicidal activity, liquid culture, cucumber preventative (anthracnose). The class given is cell-based. The settings on record: 20 ppm in the applied formulation, liquid culture in PDB, inhibition of growth measured photometrically 3 to 4 days after application, compared to untreated control, read-out: disease control. In short, it runs like this:
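Test compound in DMSO is placed in a microtiter plate, then potato dextrose broth containing conidia from cryogenic storage is added. Incubation runs at 24° C., and growth inhibition is read photometrically after 3 to 4 days.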

Assay [3] deals with Puccinia recondita f. Sp. Tritici. The assay is described as follows: Fungicidal activity, wheat leaf disc preventative (brown rust). The class given is in vivo. The settings on record: foliar, 200 ppm in the applied formulation, wheat leaf segments cv. Kanzler, compared to untreated control, 7 to 9 days after application, read-out: disease control. In short, it runs like this: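 Preventative leaf-segment test: spray application of diluted formulated compound on wheat cv. Kanzler, spore inoculation after 1 day. Percent control relative to untreated segments rated 7 to 9 days post-application, with incubation at 19° C, 75% relative humidity, 12 h photoperiod.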

With `CC(C)N(Cc1ccc(-c2noc(C(F)(F)F)n2)s1)C(=O)NC1CC1` [Compound 5.59, 3-cyclopropyl-1-isopropyl-1-[[5-[5-(trifluoromethyl)-1,2,4-oxadiazol-3-yl]-2-thienyl]methyl]urea], the pest or weed control at 200 ppm in assay [1] and in assay [3] was not below 80% each time. Moreover, the inhibition of growth at 20 ppm in assay [2] was not below 80%.
Regarding `CC(C)N(Cc1ccc(-c2noc(C(F)(F)F)n2)s1)C(=O)N(C)CC#N` [Compound 4.82, 1-(cyanomethyl)-3-isopropyl-1-methyl-3-[[5-[5-(trifluoromethyl)-1,2,4-oxadiazol-3-yl]-2-thienyl]methyl]urea], the pest or weed control at 200 ppm in assay [1] and in assay [3] was not below 80% in each case. Further, in assay [2], the inhibition of growth at 20 ppm is not below 80%.
As for `CCONC(=O)N(Cc1ccc(-c2noc(C(F)(F)F)n2)s1)OC` [Compound 1.55, 3-ethoxy-1-methoxy-1-[[5-[5-(trifluoromethyl)-1,2,4-oxadiazol-3-yl]-2-thienyl]methyl]urea], the pest or weed control at 200 ppm in assay [1] and in assay [3] was not below 80% in each case. Further, the inhibition of growth at 20 ppm in assay [2] is not below 80%.
With `CN(Cc1ccc(-c2noc(C(F)(F)F)n2)s1)C(=O)CC#N` [Compound 4.39, 2-cyano-N-methyl-N-[[5[5-(trifluoromethyl)-1,2,4-oxadiazol-3-yl]-2-thienyl]methyl]acetamide], the pest or weed control at 200 ppm in assay [1] and in assay [3] was not below 80% throughout. Further, the inhibition of growth at 20 ppm in assay [2] was not below 80%.
Take `CC(C)N(Cc1ccc(-c2noc(C(F)(F)F)n2)s1)C(=O)C(N)=O` [Compound 6.9, N′-isopropyl-N′-[[5-[5-(trifluoromethyl)-1,2,4-oxadiazol-3-yl]-2-thienyl]methyl]oxamide]: the pest or weed control at 200 ppm in assay [1] and in assay [3] was not below 80% each time. For the same compound, in assay [2], the inhibition of growth at 20 ppm is not below 80%.
Regarding `CCN(Cc1ccc(-c2noc(C(F)(F)F)n2)s1)C(=O)N1CCCO1` [Compound 5.52, N-ethyl-N-[[5-[5-(trifluoromethyl)-1,2,4-oxadiazol-3-yl]-2-thienyl]methyl]isoxazolidine-2-carboxamide], the pest or weed control at 200 ppm in assay [1] and in assay [3] was not below 80% each time. Further, in assay [2], the inhibition of growth at 20 ppm is not below 80%.
Turning to `CCCC(=O)N(Cc1ccc(-c2noc(C(F)(F)F)n2)s1)C(C)C` [Compound 4.44, N-isopropyl-N-[[5-[5-(trifluoromethyl)-1,2,4-oxadiazol-3-yl]-2-thienyl]methyl]butanamide], the pest or weed control at 200 ppm in assay [1] and in assay [3] was not below 80% in each case. Further, the inhibition of growth at 20 ppm in assay [2] was not below 80%.
Consider `O=C(C1CCCO1)N(Cc1ccc(-c2noc(C(F)(F)F)n2)s1)C1CC1` (stereo not shown) [Compound 5.40, N-cyclopropyl-N-[[5-[5-(trifluoromethyl)-1,2,4-oxadiazol-3-yl]-2-thienyl]methyl]tetrahydrofuran-2-carboxamide], for which the pest or weed control at 200 ppm in assay [1] and in assay [3] was not below 80% each time. The inhibition of growth at 20 ppm in assay [2] is not below 80%.
For the compound `COCCNC(=O)N(Cc1ccc(-c2noc(C(F)(F)F)n2)s1)C(C)C` [Compound 4.84, 1-isopropyl-3-(2-methoxyethyl)-1-[[5-[5-(trifluoromethyl)-1,2,4-oxadiazol-3-yl]-2-thienyl]methyl]urea], the pest or weed control at 200 ppm in assay [1] and in assay [3] was not below 80% in each case. The inhibition of growth at 20 ppm in assay [2] is not below 80%.
For `CCC(=O)C(=O)N(C)Cc1ccc(-c2noc(C(F)(F)F)n2)s1` [Compound 6.49, N-methyl-2-oxo-N-[[5-[5-(trifluoromethyl)-1,2,4-oxadiazol-3-yl]-2-thienyl]methyl]butanamide], the pest or weed control at 200 ppm in assay [1] and in assay [3] was not below 80% throughout. Also, the inhibition of growth at 20 ppm in assay [2] is not below 80%.
With `CC(=O)C(=O)N(C)Cc1ccc(-c2noc(C(F)(F)F)n2)s1` [Compound 6.8, N-methyl-2-oxo-N-[[5-[5-(trifluoromethyl)-1,2,4-oxadiazol-3-yl]-2-thienyl]methyl]propanamide], the pest or weed control at 200 ppm in assay [1] and in assay [3] was not below 80% each time. In assay [2], the inhibition of growth at 20 ppm is not below 80%.
`O=C(N1CCCO1)N(Cc1ccc(-c2noc(C(F)(F)F)n2)s1)C1CC1` [Compound 5.61, N-cyclopropyl-N-[[5-[5-(trifluoromethyl)-1,2,4-oxadiazol-3-yl]-2-thienyl]methyl]isoxazolidine-2-carboxamide]: the pest or weed control at 200 ppm in assay [1] and in assay [3] was not below 80% throughout. The inhibition of growth at 20 ppm in assay [2] is not below 80%.
`CN(Cc1ccc(-c2noc(C(F)(F)F)n2)s1)C(=O)C1CCCO1` (stereo not shown) [Compound 5.22, N-methyl-N-[[5-[5-(trifluoromethyl)-1,2,4-oxadiazol-3-yl]-2-thienyl]methyl]tetrahydrofuran-2-carboxamide]: the pest or weed control at 200 ppm in assay [1] and in assay [3] was not below 80% throughout. The inhibition of growth at 20 ppm in assay [2] is not below 80%.
For `COCC(=O)N(Cc1ccc(-c2noc(C(F)(F)F)n2)s1)OCC(F)F` [Compound 4.62, N-(2,2-difluoroethoxy)-2-methoxy-N-[[5-[5-(trifluoromethyl)-1,2,4-oxadiazol-3-yl]-2-thienyl]methyl]acetamide], the pest or weed control at 200 ppm in assay [1] and in assay [3] was not below 80% each time. In addition, the inhibition of growth at 20 ppm in assay [2] was not below 80%.
`COC(C)C(=O)N(OC)C(C)c1ccc(-c2noc(C(F)(F)F)n2)s1` (stereo not shown) [Compound 1.49, N,2-dimethoxy-N-[1-[5-[5-(trifluoromethyl)-1,2,4-oxadiazol-3-yl]-2-thienyl]ethyl]propanamide]: the pest or weed control at 200 ppm in assay [1] is not below 80%. Further, the inhibition of growth at 20 ppm in assay [2] is not below 80%.
Regarding `COCCN(CCOC)C(=O)N(Cc1ccc(-c2noc(C(F)(F)F)n2)s1)OC` [Compound 1.56, 1-methoxy-3,3-bis(2-methoxyethyl)-1-[[5-[5-(trifluoromethyl)-1,2,4-oxadiazol-3-yl]-2-thienyl]methyl]urea], the pest or weed control at 200 ppm in assay [1] is not below 80%. Also, the inhibition of growth at 20 ppm in assay [2] is not below 80%.
As for `CCC(C)C(=O)N(CC)Cc1ccc(-c2noc(C(F)(F)F)n2)s1` (stereo not shown) [Compound 4.27, N-ethyl-2-methyl-N-[[5-[5-(trifluoromethyl)-1,2,4-oxadiazol-3-yl]-2-thienyl]methyl]butanamide], the pest or weed control at 200 ppm in assay [1] was not below 80%. In assay [2], the inhibition of growth at 20 ppm was not below 80%.
Take `COC(C)C(=O)N(Cc1ccc(-c2noc(C(F)(F)F)n2)s1)C(C)C` (stereo not shown) [Compound 4.18, N-isopropyl-2-methoxy-N-[[5-[5-(trifluoromethyl)-1,2,4-oxadiazol-3-yl]-2-thienyl]methyl]propanamide]: the pest or weed control at 200 ppm in assay [1] is not below 80%. Moreover, in assay [2], the inhibition of growth at 20 ppm is not below 80%.
Turning to `CC(C)N(Cc1ccc(-c2noc(C(F)(F)F)n2)s1)C(=O)C1CCC1` [Compound 5.29, N-isopropyl-N-[[5-[5-(trifluoromethyl)-1,2,4-oxadiazol-3-yl]-2-thienyl]methyl]cyclobutanecarboxamide], in assay [1], the pest or weed control at 200 ppm was not below 80%. Also, the inhibition of growth at 20 ppm in assay [2] is not below 80%.
Take `CON(Cc1ccc(-c2noc(C(F)(F)F)n2)s1)C(=O)N1CCCO1` [Compound 1.57, N-methoxy-N-[[5-[5-(trifluoromethyl)-1,2,4-oxadiazol-3-yl]-2-thienyl]methyl]isoxazolidine-2-carboxamide]: the pest or weed control at 200 ppm in assay [1] is not below 80%. Besides, in assay [2], the inhibition of growth at 20 ppm was not below 80%.
As to `CC(C)N(Cc1ccc(-c2noc(C(F)(F)F)n2)s1)C(=O)C1CCCO1` (stereo not shown) [Compound 5.31, N-isopropyl-N-[[5-[5-(trifluoromethyl)-1,2,4-oxadiazol-3-yl]-2-thienyl]methyl]tetrahydrofuran-2-carboxamide], the pest or weed control at 200 ppm in assay [1] was not below 80%. In addition, in assay [2], the inhibition of growth at 20 ppm was not below 80%.
As to `CCN(Cc1ccc(-c2noc(C(F)(F)F)n2)s1)C(=O)C1CC1(F)F` (stereo not shown) [Compound 5.15, N-ethyl-2,2-difluoro-N-[[5-[5-(trifluoromethyl)-1,2,4-oxadiazol-3-yl]-2-thienyl]methyl]cyclopropanecarboxamide], the pest or weed control at 200 ppm in assay [1] was not below 80%. Besides, the inhibition of growth at 20 ppm in assay [2] is not below 80%.
